From PMC4613811 (Lung cancer (Amsterdam, Netherlands), 2015)
Like-named read-outs stand apart in the source and are kept apart here. Values belong to the molecule of their own block, whether it stands above or below them.

What was measured:
[1] = assay type: in vivo, human
[2] = NSCLC patients who currently smoke; cited from earlier work
[3] = cited from earlier work
[4] = system: NSCLC with EGFR activating mutations; details: cited from earlier work
[5] = healthy volunteers, 150 mg dose, cited from earlier work
[6] = co-administered strong CYP3A4 inducer rifampin; cited from earlier work
CYP1A2 = details: caffeine as CYP1A2 substrate; cited from earlier work
CYP3A4 = details: in vitro; cited from earlier work
[7] = Plasma pharmacokinetics of dovitinib, phase I trial; assay type: in vivo; details: human, oral
[8] = cited from earlier work; remark: listed apart in the source
FMO3 = details: in vitro; cited from earlier work
[9] = previous studies with dovitinib; cited from earlier work
[10] = post-dovitinib relative to pre-dovitinib

- AUC(0-t) ([1]; human, plasma, oral, 150 mg): 41000 ng·h/mL
- half-life ([1]; human, plasma, oral, 150 mg): 50 ± 53 h
- decrease in AUC0–24 during dovitinib co-administration ([1]; p < 0.01, six patients): 97%
- decrease in Cmax during dovitinib co-administration ([1]; p = 0.02, six patients): 93%
- AUC0–24h geometric mean ratio (D + E:E), mean [1, 10]: 0.03
- Cmax geometric mean ratio (D + E:E), mean [1, 10]: 0.07
- T1/2, terminal geometric mean ratio (D + E:E), mean [1, 10]: 0.10
Structure (SMILES): C#Cc1cccc(Nc2ncnc3cc(OCCOC)c(OCCOC)cc23)c1 [Erlotinib]
- steady-state trough concentration, fold lower compared to non-smokers [2]: 2 fold
- median half-life [3]: 36.2 h
- time to development of resistance in the majority of patients ([4]; NSCLC patients with EGFR activating mutations): less than 1 year
- response rates (RRs) ([4]; NSCLC patients with known EGFR activating mutations): 60–70%
- AUC ([5]; non-smokers): 18,726 ng × h/mL
- Cmax ([5]; nonsmokers): 1056 ng/mL
- decrease in AUC in smokers ([5]; smokers vs non-smokers): 64%
- decrease in Cmax in smokers ([5]; smokers vs nonsmokers): 35%
- AUC ([5]; smokers): 6718 ng·h/mL
- Cmax ([5]; smokers): 689 ng/mL
- decrease in AUC with rifampin [6]: 66%
- decrease in Cmax with rifampin [6]: 29%

- AUC0–24h ([1]; Erlotinib alone (E), Day 14 ± 4, normalized to erlotinib 150 mg dose, mean ± SD): 5381 ± 2982 ng·h/mL
- AUC0–24h geometric mean ratio (D + E:E), mean [1, 10]: 0.06
- Cmax geometric mean ratio (D + E:E), mean [1, 10]: 0.17
Structure (SMILES): C#Cc1cccc(Nc2ncnc3cc(OCCOC)c(OCCO)cc23)c1 [OSI-420]

- Tmax [7]: 6 h
- half-life [7]: 32 ± 19 h
Structure (SMILES): CN1CCN(c2ccc3nc(-c4c(N)c5c(F)cccc5[nH]c4=O)[nH]c3c2)CC1 [Dovitinib]
- reduction of the AUC of caffeine (CYP1A2): 96%
- share of metabolism by CYP3A4 (CYP3A4): 17–35%
- effect of food on bioavailability [8]: food does not alter the bioavailability
- share of metabolism by FMO3 (FMO3): 65–83%
- decreased appetite, regardless of grade [9]: 37.0%
- diarrhea, regardless of grade [9]: 68%
- fatigue, regardless of grade [9]: 40.5%
- nausea, regardless of grade [9]: 66.7%
- vomiting, regardless of grade [9]: 60.6%
